Measured values published in patent US20240052012A1, “PLATELET ALPHA-GRANULES FOR DELIVERY OF MULTIPLE PROTEINS” (CSTS Health Care Inc., priority 2021, published 2024).
One block for each compound: values may come before it. Ends that are not written are not given here.

Columns and labels:
[1] = system: platelets (platelet rich plasma); assay: FACS analysis of growth factor uptake by platelets; assay type: cell-based; conditions: pretreatment of platelet rich plasma; FGF, PF4, VEGF, TPO; all but thrombopoietin; FIG. 15B
From the text: (Inh=inhibitor added, PF4 receptor, a splice variant of the chemokine receptor CXCR3, known as CXCR3B).

[2] = system: platelet α-granule; assay: Confocal microscopy, loading of Alexa647-PAL1 conjugated Lucitanib; assay type: cell-based; conditions: one hour at 37° C.; FIG. 26A
Method: Platelets were co-incubated with Alexa647-labled Lucitanib or with Alexa647-PAL1 conjugated Lucitanib for one hour at 37° C. The platelets were then spun for 10-minutes at 800 g, fixed in 2% paraformaldehyde, and settled onto glass coverslips. After permeabilization, immunofluorescence staining was performed against PF4 in platelets and further stained with Alexa568-secondary antibody. The images were collected through a Nikon-Al laser-scanning microscope equipped with a 60× oil objective. FIG. 26A includes representative images in which immunofluorescence for PF4 was shown in red and Alexa647 was shown in blue. […] FIG. 26B is a graph showing the averaged intensities of Alexa647 channel for >800 ROIs in each group were analyzed using ImageJ and the error bar is the standard deviation of the mean.

[3] = system: isolated platelets; assay: Platelet loading of Alexa647-labeled peptides, decrease in fluorescence in supernatant; assay type: cell-based; conditions: for fluorescence of supernatant, complete versus loaded measurements (platelet loading): Alexa647-labeled peptides co-incubated with isolated platelets at 37° C. for one hour, FIG. 1A; for loading of attached cargo into platelets, loaded condition normalized to its complete condition: FIG. 1B
Method: Alexa647-labeled peptides or Alexa647 alone were co-incubated with isolated platelets at 37° C. for one hour to allow for platelet loading. The respective platelet-loading ability was indicated by a decrease in fluorescence in supernatant following the incubation. For controls, identical experiments were performed without the incubation period (noted as “complete” in the figure). Platelets following co-incubation were then centrifuged at 800 g for 10-minutes to separate platelets from supernatant (noted as “loaded” in the figure).
FIG. 1B represents the data in FIG. 1A normalized for each peptide experiment, i.e., normalization of a loaded condition to its complete condition.

[4] = system: alpha granules of platelets; assay: Confocal microscopy, colocalization of Alexa647-labeled peptides with PF4; assay type: cell-based; conditions: for loading into alpha granules of platelets (Alexa647 intensities per ROI): ROIs selected on PF4 intensity, FIG. 2B
Method: To confirm that the Alexa647-labeled GAG-binding peptides were loaded into alpha granules of platelets, confocal microscopy was used. The platelets that were centrifuged in the experiments of FIG. 1A and FIG. 1B, were fixed in 2% paraformaldehyde and settled onto glass coverslips. After permeabilization, immunofluorescence staining was performed against PF4, which is a marker for alpha granules of platelets. Platelets were stained with Alexa568-secondary antibody. Images were collected through a Nikon-A1 laser-scanning microscope equipped with a 60× oil objective lens.
FIG. 2A are representative images with PF4 staining shown in red (left column) and the Alexa647 signal (from the free Alexa647, Alexa647-labeled GAG-binding peptide, or Alexa647-labeled CFL; middle column) shown in purple. Images were only adjusted for brightness and contrast for display. n>5 images were acquired for each experiment and regions of interest (ROIs) were selected based on PF4 intensity.
The Alexa647 intensities for each ROI were measured using ImageJ and plotted in box and whisker graph using Prism 8.

[5] = system: alpha-granule subsets of platelets; assay: Confocal microscopy, subcellular localization of Alexa647-labelled PAL1 and PAL2 against VEGF and PF4; assay type: cell-based; conditions: Alexa647-labelled peptides, FIG. 24; for loading into alpha-granule subsets: VEGF and PF4 markers; for preferred colocalization with alpha-granule subset marker: VEGF/PAL and PF4/PAL merged
Method: FIG. 24 are immunofluorescent images showing that PAL1 and PAL2 have different subcellular localizations, i.e., have a preference for distinct alpha-granules. Using VEGF as the marker of one alpha-granule set (green) and PF4 as the marker of the second alpha-granule set (red), the subcellular localization of Alexa647-labelled PAL1 and PAL2 (blue) were recorded on Nikon-Al confocal microscope.
The images FIG. 24 were acquired using Nikon-A1 confocal microscope equipped with a 60× oil immersed objective. PAL1 and PAL2 partially colocalize with both subsets of the alpha-granules as indicated by the cyan and purple pixels in the merged images. To quantify the difference between PAL1 and PAL2, the fractionation of loaded platelets were performed

[6] = Isothermal titration calorimetry (ITC) of GAG-binding peptides; conditions: for affinity for chondroitin sulfate A (dissociation constants by ITC): 22° C., 5 mM Tris-HCl pH 7.35, 1% DMSO, FIG. 3E, 3F
Method: FIG. 3A is a schematic depicting the isothermal titration calorimetry (ITC) experiments performed in this example. Here, chondroitin sulfate A (CSA) was used to test affinities of illustrative GAG-binding peptides for glycosaminoglycan. 3 mM CSA was loaded into a syringe and CSA was titrated into the sample cell withholding a 0.25 mM solution of GAG-binding peptide or a charge-free ligand (CFL), which served as a negative control. Temperature was set at 22° C., the buffer was 5 mM Tris-HCl (pH 7.35), and 1% DMSO.
FIG. 3B to FIG. 3D show graphical representations of ITC dissociation kinetics for CSA titrated into cells withholding PAL1 (FIG. 3B), PAL2 (FIG. 3C), and CFL (FIG. 3D).
The data obtained during the experiments of FIG. 3B and FIG. 3C were used to determine dissociation constants for the CSA and GAG-binding peptide interactions; these were determined through titration curve fitting using sequential binding model.
(§1) Additionally, the binding affinities for the two illustrative GAG-binding peptides, PAL1 and PAL2, to Heparan Sulfate (HS) and Chondroitin Sulfate (CSA) was determined using affinity chromatography. […] The dissociation constants were measured using ITC, the higher it is, the looser the binding is. […] The binding was measured by the elution volume on a Hi-Trap Heparin column attached to a FPLC system. The later the peak occurs, the tighter the binding is. In FIG. 4A, the peptide amino acid sequences including the control peptide (CFL) and the two PALs (PAL1 and PAL2) are shown.

[7] = system: EOMA cells and platelets; assay: Immunofluorescence, aggregation of platelet PF4 on EOMA cells; assay type: cell-based, murine; conditions: FIG. 22
Method: Platelet factor 4 (PF4) has one of the highest affinities for HS occurring in nature and can occupy GAG sites and displace other HS binding growth factors. As such, PF4 acts as an inhibitor of tumor growth. FIG. 22 are immunofluorescent images showing that platelets form a provisional matrix that can exchange proteins with endothelial cells upon tumor activation. Murine hemangioendothelioma cells (EOMA) cells were grown in standard media (DMEM+10% FBS), and normal platelets were added. Under normal conditions (top row), PF4 (the main content of platelets α-granules; green and left column) is seen at the periphery (i.e., along the membrane) of the EOMA cells as the platelets aggregate along the cell membrane. Heparan sulphate (red, second from left column) is distributed throughout the membranous surface of the endothelial cell, and DAPI (blue, second from right column) is the nuclear counterstain. In absence of tumor conditioned media, thrombin or other activators of endothelial cell, there is no clumping and aggregation of the platelets. […] However, upon incubation of EOMA cells and platelets in presence of tumor conditioned media (second row), the expression of HS is increased, and a thick platelet provisional matrix is formed as shown by the aggregation of PF4 on the HS rich surface EOMA cell; this platelet provisional matrix is used by EOMA cells for growth. […]

[8] = system: murine hemangioendothelioma cells (EOMA); assay: Sequestration of bFGF by GAGs on EOMA cells; assay type: cell-based; conditions: monolayer culture, standard or tumor conditioned media; FIG. 20
From the text: FIG. 20 is a graph showing sequestration of growth factors by glycosaminoglycans (GAGs) on the surface of murine hemangioendothelioma cells (EOMA). Here, the cells growing in monolayer tissue culture conditions either under standard media conditions or in surrogate tumor environment using tumor conditioned media, sequester bFGF onto the GAGS on platelets and endothelial cells, and thus remove it from the supernatant. […] Values represent means and SE of 5 wells.

[9] = Affinity chromatography of peptides, Hi-Trap Heparin column on FPLC; assay type: binding; conditions: PAL1 versus PAL2; FIG. 4C
Method: as §1

Compound: Cc1cc(N)c2cc(NC(=O)Nc3ccc4nc(C)cc(N)c4c3)ccc2n1 [surfen]
- growth factor uptake by platelets [1]: significantly inhibits growth factor uptake by platelets

Compound: Alexa647-labelled PAL1 conjugated-Lucitanib: Lucitanib conjugated with Alexa647-labelled PAL1 (SEQ ID NO: 1) (ERRIWFPYRRF; also: Alexa647 label, conjugated to Lucitanib, sites not given here)
- colocalization with PF4 / loading into α-granules [2]: colocalization

Compound: EGGIWFPYGGF [CFL, reference compound]
- fluorescence of supernatant, complete versus loaded measurements (platelet loading) [3]: did not change
- loading of attached cargo into platelets, loaded condition normalized to its complete condition [3]: unable to direct loading of the cargo into platelets
- loading into alpha granules of platelets (Alexa647 intensities per ROI) [4]: do not load into platelets
- colocalization of alpha granule marker PF4 and Alexa647 signal ([4]; merged images, FIG. 2A): Co-localization was not observed

- affinity for chondroitin sulfate A (dissociation constants by ITC) [6]: high affinity
- relative binding to CSA (dissociation constants by ITC) ([6]; PAL1 versus PAL2, FIG. 4B): bind CSA tighter than PAL2
Compound: ERRIWFPYRRF [PAL1]
- loading into alpha-granule subsets [5]: loaded to both the subsets of alpha-granules
- preferred colocalization with alpha-granule subset marker [5]: colocalized more to the VEGF subset
- fluorescence of supernatant, complete versus loaded measurements (platelet loading) [3]: decrease in absorbance
- loading of attached cargo into platelets, loaded condition normalized to its complete condition [3]: facilitates loading of an attached cargo into platelets
- loading into alpha granules of platelets (Alexa647 intensities per ROI) [4]: facilitates loading of an attached cargo into alpha granules of platelets

Compound: Heparin
- aggregation of platelet PF4 on the HS rich surface of EOMA cells [7]: inhibited
- sequestration of bFGF from the supernatant onto GAGs [8]: further enhance the phenomenon

- relative binding to HS (elution volume on Hi-Trap Heparin column) [9]: binds HS tighter than PAL1
- affinity for chondroitin sulfate A (dissociation constants by ITC) [6]: high affinity
Compound: RFRWPYRIREF [PAL2]
- loading into alpha-granule subsets [5]: loaded to both the subsets of alpha-granules
- preferred colocalization with alpha-granule subset marker [5]: colocalized more to the PF4 channel
- fluorescence of supernatant, complete versus loaded measurements (platelet loading) [3]: decrease in absorbance
- loading of attached cargo into platelets, loaded condition normalized to its complete condition [3]: facilitates loading of an attached cargo into platelets
- loading into alpha granules of platelets (Alexa647 intensities per ROI) [4]: facilitates loading of an attached cargo into alpha granules of platelets

Compound: thrombin
- aggregation of platelet PF4 on the HS rich surface of EOMA cells [7]: reproduced
- sequestration of bFGF from the supernatant onto GAGs [8]: released from the GAGs into the supernatant
